Results as given in patent publication US20170008888A1 (KYORIN PHARMACEUTICAL CO., LTD., priority 2014, published 2017).

Columns and labels:
[1] = target: T1, ERK5 (Homo sapiens, UniProt Q13164); assay: Probe-based (AX9989 acyl phosphate ATP probe) kinase profiling in Jurkat lysate: ERK5; assay type: binding; conditions: for IC50: Jurkat lysate; for inhibition at 0.1 µM: screening concentration 0.1 μM
T1 construct: screened for activity against several kinases in Jurkat cells; endogenous in cells; host or cells: Jurkat cell lysate
T1 sequence (Q13164 whole entry): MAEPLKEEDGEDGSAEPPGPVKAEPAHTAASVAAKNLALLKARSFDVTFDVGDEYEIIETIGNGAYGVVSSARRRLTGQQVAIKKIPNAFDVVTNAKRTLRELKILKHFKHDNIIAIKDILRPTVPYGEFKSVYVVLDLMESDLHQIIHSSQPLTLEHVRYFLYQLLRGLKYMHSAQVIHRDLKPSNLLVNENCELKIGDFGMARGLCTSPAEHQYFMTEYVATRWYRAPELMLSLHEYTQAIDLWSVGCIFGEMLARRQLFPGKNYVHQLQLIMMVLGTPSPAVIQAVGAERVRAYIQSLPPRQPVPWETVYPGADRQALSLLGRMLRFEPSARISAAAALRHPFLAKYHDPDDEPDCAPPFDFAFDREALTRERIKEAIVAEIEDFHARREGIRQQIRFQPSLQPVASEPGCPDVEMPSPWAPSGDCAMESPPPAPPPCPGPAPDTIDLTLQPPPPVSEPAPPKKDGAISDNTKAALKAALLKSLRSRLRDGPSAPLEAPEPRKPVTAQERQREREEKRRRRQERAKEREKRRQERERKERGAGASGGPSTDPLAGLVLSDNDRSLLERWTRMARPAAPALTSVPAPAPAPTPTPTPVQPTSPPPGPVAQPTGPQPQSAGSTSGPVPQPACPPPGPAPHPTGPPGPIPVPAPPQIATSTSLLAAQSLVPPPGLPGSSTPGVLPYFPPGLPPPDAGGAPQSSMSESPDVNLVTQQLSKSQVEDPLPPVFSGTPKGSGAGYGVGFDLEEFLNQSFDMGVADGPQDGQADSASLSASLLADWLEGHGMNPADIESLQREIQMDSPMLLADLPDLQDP
Outline: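 Gel-filtered Jurkat lysate (5 mg/ml, 20 mM MnCl2) preincubated 15 min at room temperature with compound, then labelled with 5 μM AX9989 acyl phosphate ATP probe. Probe-labelled ERK5 active-site peptides quantified by LC/MS after trypsin digestion and streptavidin capture; IC50 calculated from percent inhibition at the screening concentration.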

[2] = target: T2, AurA (Homo sapiens, UniProt O14965); assay: Probe-based (AX9989) kinase profiling in Jurkat lysate: AurA; assay type: binding; conditions: for inhibition at 0.1 µM: screening concentration 0.1 μM
T2 construct: screened for activity against several kinases in Jurkat cells; endogenous in cells; host or cells: Jurkat cell lysate
T2 sequence (O14965 1-403): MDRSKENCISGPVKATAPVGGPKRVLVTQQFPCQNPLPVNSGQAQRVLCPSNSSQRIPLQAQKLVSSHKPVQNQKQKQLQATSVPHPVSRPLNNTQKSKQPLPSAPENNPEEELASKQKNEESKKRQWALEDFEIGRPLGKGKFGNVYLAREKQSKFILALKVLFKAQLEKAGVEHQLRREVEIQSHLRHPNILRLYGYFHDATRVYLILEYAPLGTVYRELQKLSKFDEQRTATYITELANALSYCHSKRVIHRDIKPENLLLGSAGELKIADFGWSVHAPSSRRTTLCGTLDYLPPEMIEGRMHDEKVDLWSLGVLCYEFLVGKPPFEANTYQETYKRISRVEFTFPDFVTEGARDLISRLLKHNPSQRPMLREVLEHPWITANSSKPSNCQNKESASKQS
Outline: (§1)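 Jurkat lysate, HEPES pH 7.5 buffer + 20 mM MnCl2; cpd 15 min RT; AX9989 ATP probe 5 μM final, RT. Trypsin digest, streptavidin capture, LC/MS; % inhibition vs vehicle from labeled-peptide signal.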

[3] = tested on: AurB or AurC; assay: Probe-based (AX9989) kinase profiling in Jurkat lysate: AurB or AurC; assay type: binding
Outline: as §1

[4] = target: T3, JAK1 (Homo sapiens, UniProt P23458); assay: Probe-based (AX9989) kinase profiling in Jurkat lysate: JAK1; assay type: binding; conditions: for inhibition at 0.1 µM: screening concentration 0.1 μM
T3 construct: screened for activity against several kinases in Jurkat cells; endogenous in cells; host or cells: Jurkat cell lysate
T3 sequence (P23458 whole entry): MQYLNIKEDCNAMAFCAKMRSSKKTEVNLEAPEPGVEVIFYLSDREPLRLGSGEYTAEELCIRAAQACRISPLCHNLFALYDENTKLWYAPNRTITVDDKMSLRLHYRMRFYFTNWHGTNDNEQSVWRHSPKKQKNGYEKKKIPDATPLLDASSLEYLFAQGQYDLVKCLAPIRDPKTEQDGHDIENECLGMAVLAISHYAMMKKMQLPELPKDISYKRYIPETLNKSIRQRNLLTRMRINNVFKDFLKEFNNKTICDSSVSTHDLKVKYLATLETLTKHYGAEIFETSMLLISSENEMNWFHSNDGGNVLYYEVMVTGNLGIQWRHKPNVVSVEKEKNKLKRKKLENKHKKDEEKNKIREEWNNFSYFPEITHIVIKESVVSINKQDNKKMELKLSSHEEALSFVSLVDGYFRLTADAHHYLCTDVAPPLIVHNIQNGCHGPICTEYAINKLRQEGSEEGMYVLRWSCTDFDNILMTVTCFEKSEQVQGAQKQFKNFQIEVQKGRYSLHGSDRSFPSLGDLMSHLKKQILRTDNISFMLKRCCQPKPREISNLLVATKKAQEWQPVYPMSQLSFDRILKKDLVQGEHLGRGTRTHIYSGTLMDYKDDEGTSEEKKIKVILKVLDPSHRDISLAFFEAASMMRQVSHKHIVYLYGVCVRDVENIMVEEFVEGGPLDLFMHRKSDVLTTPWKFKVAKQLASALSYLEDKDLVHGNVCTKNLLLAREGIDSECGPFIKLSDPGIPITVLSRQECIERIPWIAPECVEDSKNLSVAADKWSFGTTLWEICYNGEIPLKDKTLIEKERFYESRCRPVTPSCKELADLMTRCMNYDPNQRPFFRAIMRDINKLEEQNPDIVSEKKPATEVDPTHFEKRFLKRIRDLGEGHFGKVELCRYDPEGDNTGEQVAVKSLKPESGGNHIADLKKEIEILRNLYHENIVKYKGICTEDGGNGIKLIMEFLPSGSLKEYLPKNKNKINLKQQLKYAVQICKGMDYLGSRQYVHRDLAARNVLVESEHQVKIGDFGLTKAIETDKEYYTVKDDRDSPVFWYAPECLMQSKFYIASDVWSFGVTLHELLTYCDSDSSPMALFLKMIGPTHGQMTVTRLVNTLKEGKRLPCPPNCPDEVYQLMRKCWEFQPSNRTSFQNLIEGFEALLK
Outline: as §1

[5] = tested on: AMPKa1 or AMPKa2; assay: Probe-based (AX9989) kinase profiling in Jurkat lysate: AMPKa1 or AMPKa2; assay type: binding
Outline: as §1

[6] = target: T4, TAO2 (Homo sapiens, UniProt Q9UL54); assay: Probe-based (AX9989) kinase profiling in Jurkat lysate: TAO2; assay type: binding; conditions: for inhibition at 0.1 µM: screening concentration 0.1 μM
T4 construct: screened for activity against several kinases in Jurkat cells; endogenous in cells; host or cells: Jurkat cell lysate
T4 sequence (Q9UL54 1-1235): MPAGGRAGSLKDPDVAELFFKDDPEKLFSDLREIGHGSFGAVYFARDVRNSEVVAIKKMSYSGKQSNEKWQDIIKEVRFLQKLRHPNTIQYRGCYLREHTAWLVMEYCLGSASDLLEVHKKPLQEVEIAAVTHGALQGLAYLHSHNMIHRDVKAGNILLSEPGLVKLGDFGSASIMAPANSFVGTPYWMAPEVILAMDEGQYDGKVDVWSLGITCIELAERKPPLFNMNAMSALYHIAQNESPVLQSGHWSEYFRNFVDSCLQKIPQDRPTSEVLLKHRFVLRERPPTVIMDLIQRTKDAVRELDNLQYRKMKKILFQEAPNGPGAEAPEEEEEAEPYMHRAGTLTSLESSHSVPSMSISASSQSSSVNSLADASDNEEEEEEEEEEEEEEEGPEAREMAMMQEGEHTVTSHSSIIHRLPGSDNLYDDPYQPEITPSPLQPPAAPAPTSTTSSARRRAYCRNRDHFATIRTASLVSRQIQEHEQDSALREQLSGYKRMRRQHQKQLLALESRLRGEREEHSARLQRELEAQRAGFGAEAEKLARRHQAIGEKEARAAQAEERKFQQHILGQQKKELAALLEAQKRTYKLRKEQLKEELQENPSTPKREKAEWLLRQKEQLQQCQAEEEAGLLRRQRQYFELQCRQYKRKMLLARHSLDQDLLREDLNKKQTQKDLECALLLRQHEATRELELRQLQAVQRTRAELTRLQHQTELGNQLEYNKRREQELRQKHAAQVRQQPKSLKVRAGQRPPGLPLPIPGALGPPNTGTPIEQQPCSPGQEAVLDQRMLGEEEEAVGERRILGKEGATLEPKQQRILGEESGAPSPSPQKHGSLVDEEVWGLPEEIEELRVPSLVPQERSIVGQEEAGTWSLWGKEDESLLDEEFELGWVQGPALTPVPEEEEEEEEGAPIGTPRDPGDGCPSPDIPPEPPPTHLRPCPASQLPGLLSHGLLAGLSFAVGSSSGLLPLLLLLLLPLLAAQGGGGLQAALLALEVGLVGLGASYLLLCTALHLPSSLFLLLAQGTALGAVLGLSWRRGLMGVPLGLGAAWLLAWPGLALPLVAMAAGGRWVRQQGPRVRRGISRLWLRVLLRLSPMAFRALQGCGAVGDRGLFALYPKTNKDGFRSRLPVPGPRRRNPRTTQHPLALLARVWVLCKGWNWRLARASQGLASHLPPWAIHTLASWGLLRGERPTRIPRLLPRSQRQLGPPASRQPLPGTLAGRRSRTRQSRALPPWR
Outline: as §1

[7] = target: T5, ACK (Homo sapiens, UniProt Q07912); assay: Probe-based (AX9989) kinase profiling in Jurkat lysate: ACK; assay type: binding; conditions: for inhibition at 0.1 µM: screening concentration 0.1 μM
T5 construct: screened for activity against several kinases in Jurkat cells; endogenous in cells; host or cells: Jurkat cell lysate
T5 sequence (Q07912 whole entry): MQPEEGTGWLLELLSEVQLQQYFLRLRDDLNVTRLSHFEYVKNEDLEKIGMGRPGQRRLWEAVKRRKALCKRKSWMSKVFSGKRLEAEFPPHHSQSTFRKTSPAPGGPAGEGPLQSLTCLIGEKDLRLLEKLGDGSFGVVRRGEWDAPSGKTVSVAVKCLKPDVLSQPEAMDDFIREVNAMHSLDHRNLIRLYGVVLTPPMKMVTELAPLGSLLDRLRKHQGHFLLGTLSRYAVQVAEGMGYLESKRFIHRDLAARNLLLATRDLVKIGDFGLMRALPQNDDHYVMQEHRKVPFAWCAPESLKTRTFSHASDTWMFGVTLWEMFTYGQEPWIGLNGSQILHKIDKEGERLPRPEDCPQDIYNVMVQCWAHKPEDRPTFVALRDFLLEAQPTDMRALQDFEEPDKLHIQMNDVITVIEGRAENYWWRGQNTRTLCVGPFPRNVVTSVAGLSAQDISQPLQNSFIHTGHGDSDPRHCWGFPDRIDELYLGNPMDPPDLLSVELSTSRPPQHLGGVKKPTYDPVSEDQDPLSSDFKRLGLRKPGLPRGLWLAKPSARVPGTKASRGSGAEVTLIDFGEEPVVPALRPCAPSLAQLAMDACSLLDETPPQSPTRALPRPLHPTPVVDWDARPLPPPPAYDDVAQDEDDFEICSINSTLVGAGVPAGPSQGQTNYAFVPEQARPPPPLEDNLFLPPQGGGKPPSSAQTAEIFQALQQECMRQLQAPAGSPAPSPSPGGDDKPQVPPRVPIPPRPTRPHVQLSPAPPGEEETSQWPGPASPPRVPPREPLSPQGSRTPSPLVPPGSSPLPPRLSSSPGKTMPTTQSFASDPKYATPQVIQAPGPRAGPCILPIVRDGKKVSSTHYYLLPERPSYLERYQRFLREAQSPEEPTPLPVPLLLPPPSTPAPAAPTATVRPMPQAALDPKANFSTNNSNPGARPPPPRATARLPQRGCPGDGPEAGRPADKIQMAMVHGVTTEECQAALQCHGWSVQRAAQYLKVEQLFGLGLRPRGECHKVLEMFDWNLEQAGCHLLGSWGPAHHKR
Outline: as §1

[8] = tested on: ABL or ARG; assay: Probe-based (AX9989) kinase profiling in Jurkat lysate: ABL or ARG; assay type: binding
Outline: as §1

[9] = tested on: human PBMCs; assay: Human PBMC TNF-α response to endotoxin (ELISA); assay type: cell-based; conditions: 0.1 μg/ml LPS 16 h, read-out: EC50 for the inhibition of the human PBMC TNF-α response to endotoxin, ave. ± S.D.
Outline: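 PBMCs at 2e6 cells/ml in RPMI 1640 with 10% charcoal-dextran-treated FBS were pre-treated 1 h at 37 °C with compound (4-point 1:5 dilution from 10 μM). Stimulation with 0.1 μg/ml E. coli 0111:B4 LPS for 16 h; TNF-α measured by ELISA (A450) in 25-fold diluted supernatant.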

[10] = calculated from percent inhibition of AX9989 labeling and the screening concentration
[11] = read-out: Kinase inhibition % at indicated screening concentration: ERK5
[12] = read-out: Kinase inhibition % at indicated screening concentration: AurA
[13] = read-out: Kinase inhibition % at indicated screening concentration: JAK1
[14] = read-out: Kinase inhibition % at indicated screening concentration: TAO2
[15] = read-out: Kinase inhibition % at indicated screening concentration: ACK

Structure (SMILES)	IC50 [1, 10]	inhibition at 0.1 µM [1, 11]	inhibition at 0.1 µM [2, 12]	Kinase inhibition % at indicated screening concentration: AurB or AurC ([3]; screening concentration 0.1 μM)	inhibition at 0.1 µM [4, 13]	Kinase inhibition % at indicated screening concentration: AMPKa1 or AMPKa2 ([5]; screening concentration 0.1 μM)	inhibition at 0.1 µM [6, 14]	inhibition at 0.1 µM [7, 15]	Kinase inhibition % at indicated screening concentration: ABL or ARG ([8]; screening concentration 0.1 μM)	EC50 [9]	also measured
CCOc1cc(C(=O)N2CCC(N)C2)ccc1Nc1cc2c(cn1)N(C)C(=O)c1occc1N2C (stereo not shown) [Compound 11]	≤ 50 nM	> 90%	≤ 35%	E (E is ≦35%)	≤ 35%	E (E is ≦35%)	≤ 35%	≤ 35%	E (E is ≦35%)	2520 nM	–
CCOc1cc(C(=O)N2CCN(C(=O)OC(C)(C)C)C[C@@H]2C)ccc1Nc1cc2c(cn1)N(C)C(=O)c1ccccc1N2C [Compound 50]	101 to 500 nM	35 to 50%	≤ 35%	E (E is ≦35%)	≤ 35%	E (E is ≦35%)	≤ 35%	≤ 35%	E (E is ≦35%)	2580 nM	–
CCN(CC)CCNC(=O)c1ccc(OC)c(Nc2cc3c(cn2)N(C)C(=O)c2ccccc2N3C)c1 [Compound 16]	101 to 500 nM	–	–	–	–	–	–	–	–	1870 nM	inhibition at 1 µM ([1]; screening concentration 1.0 μM, read-out: Kinase inhibition % at indicated screening concentration: ERK5): 75 to 90%; inhibition at 1 µM ([2]; screening concentration 1.0 μM, read-out: Kinase inhibition % at indicated screening concentration: AurA): ≤ 35%; Kinase inhibition % at indicated screening concentration: AurB or AurC ([3]; screening concentration 1.0 μM): E (E is ≦35%); inhibition at 1 µM ([4]; screening concentration 1.0 μM, read-out: Kinase inhibition % at indicated screening concentration: JAK1): ≤ 35%; Kinase inhibition % at indicated screening concentration: AMPKa1 or AMPKa2 ([5]; screening concentration 1.0 μM): E (E is ≦35%); inhibition at 1 µM ([6]; screening concentration 1.0 μM, read-out: Kinase inhibition % at indicated screening concentration: TAO2): ≤ 35%; inhibition at 1 µM ([7]; screening concentration 1.0 μM, read-out: Kinase inhibition % at indicated screening concentration: ACK): ≤ 35%; Kinase inhibition % at indicated screening concentration: ABL or ARG ([8]; screening concentration 1.0 μM): E (E is ≦35%)
CCOc1cc(C(=O)N2CCN(C3CCN(C)CC3)CC2)ccc1Nc1cc2c(cn1)N(C)C(=O)c1ccccc1[S+]2[O-] (stereo not shown) [Compound T100]	–	–	–	–	–	–	–	–	–	> 15000 nM	IC50 ([1]; calculated from percent inhibition and screening concentration, AX9989 probe): > 500 nM; inhibition at 10 µM ([1]; screening concentration 10 μM, read-out: ERK5 Inhibition % at indicated screening concentration): 75 to 90%; inhibition at 10 µM ([2]; screening concentration 10 μM, read-out: AurA Inhibition % at indicated screening concentration): ≤ 35%; AurB or AurC Inhibition % at indicated screening concentration ([3]; screening concentration 10 μM): E (E is ≦35%); inhibition at 10 µM ([4]; screening concentration 10 μM, read-out: JAK1 Inhibition % at indicated screening concentration): ≤ 35%; AMPKa1 or AMPKa2 Inhibition % at indicated screening concentration ([5]; screening concentration 10 μM): E (E is ≦35%); inhibition at 10 µM ([6]; screening concentration 10 μM, read-out: TAO2 Inhibition % at indicated screening concentration): ≤ 35%; inhibition at 10 µM ([7]; screening concentration 10 μM, read-out: ACK Inhibition % at indicated screening concentration): ≤ 35%; ABL or ARG Inhibition % at indicated screening concentration ([8]; screening concentration 10 μM): E (E is ≦35%)
